Data on 30 compounds can be found in the Deep4Chem optical property database.

A short description of this series: photoluminescence quantum yield (fraction); solvent given as SMILES.

The structures appear in SMILES notation.

With `c1ccc2c(c1)OP1(=NP(Oc3ccc4ccc5cccc6ccc3c4c56)(Oc3ccc4ccc5cccc6ccc3c4c56)=NP(Oc3ccc4ccc5cccc6ccc3c4c56)(Oc3ccc4ccc5cccc6ccc3c4c56)=N1)Oc1ccccc1-2`, where the note is “in ClCCl”, the photoluminescence quantum yield turned out to be 0.89.

`COc1ccc2cc3c(C)cc(=O)oc3cc2c1`: the photoluminescence quantum yield is, setting by setting: (in CC#N) 0.0071; (in CCCCCC) 0; (in CCO) 0.13; (in CCOC(C)=O) 0.0006; (in CO) 0.21; (in ClC(Cl)Cl) 0.011. The photoluminescence quantum yield (in OCC(F)(F)F) came out at 0.33.

As for `COc1ccc2c(c1)SCC1=C(c3ccccc3)C3=Nc4c(-c5ccccc5)c5c(n4[B-](F)(F)[N+]3=C12)-c1ccc(OC)cc1SC5`, the photoluminescence quantum yield (in ClC(Cl)Cl) worked out at 0.11.

As to `COc1ccc2[nH]cc(/C=C/C3=[NH+]c4cccc5cccc3c45)c2c1`, the photoluminescence quantum yield (in CO) was 0.0486.

As to `c1ccc(/C(=C(\c2ccccc2)c2cc(-c3ccc(-c4ccccc4)cc3)ccc2-c2ccc(-c3ccccc3)cc2)c2cc(-c3ccc(-c4ccccc4)cc3)ccc2-c2ccc(-c3ccccc3)cc2)cc1`, the photoluminescence quantum yield (in C1CCOC1) came to 0.32.

Take `CC1=CC(C)=[N+]2C1=Cc1c3ccccc3c(-c3[nH]c(C)cc3C)n1[B-]2(F)F`: the photoluminescence quantum yield (in ClCCl) was 0.61.

The compound `c1ccc(-c2cc3cccc4cc(-c5ccccc5)c5cc(-c6cc7[b-]8c(c6)c(-c6ccccc6)cc6cccc(cc7-c7ccccc7)[n+]86)cc2[b-]5[n+]34)cc1` had a photoluminescence quantum yield (in C1CCCCC1) of 0.12.

Consider `CC1(C)C(/C=C/c2cc3ccc(O)cc3oc2=O)=[N+](CCCS(=O)(=O)[O-])c2ccc3c(S(=O)(=O)O)cc(S(=O)(=O)O)cc3c21`, for which the photoluminescence quantum yield runs as follows: (in CCO) 0.014; (in CS(C)=O) 0.025; (in O) 0.027.

Turning to `F[B-]1(F)OC(c2ccccc2)=Cc2c3ccccc3cc[n+]21`, the photoluminescence quantum yield (in ClC(Cl)Cl) turned out to be 0.046.

In the case of `COCCC1(CCOC)c2cc(-c3ccc(OC)cc3)ccc2-c2ccc(-c3ccc4c(c3)C(CCOC)(CCOC)c3cc(-c5ccc(OC)cc5)ccc3-4)cc21`, where the note is “in CN(C)C=O”, the photoluminescence quantum yield stood at 0.95.

In turn, `c1ccc(-c2nc(-c3ccc(N4CCCC4)cc3)cc(-c3ccc4ccccc4c3)n2)cc1` had a photoluminescence quantum yield (in ClC(Cl)Cl) of 0.19.

`CCCCCCCCN1c2ccc(C#Cc3ccc(C(F)(F)F)cc3)cc2Sc2cc(C=O)ccc21`: the photoluminescence quantum yield worked out at 0.67 (in C1CCOC1); 0.63 (in CC#N); 0.57 (in CCCCCC); 0.23 (in CO); 0.72 (in CS(C)=O); 0.62 (in Cc1ccccc1). This compound came in with a photoluminescence quantum yield (in ClC(Cl)Cl) of 0.59.

Take `CC1(C)c2ccccc2N(c2c(F)cc(-c3nnc(-c4ccccc4)o3)cc2F)c2ccccc21`: the photoluminescence quantum yield turned out to be 0.24 (in Cc1ccccc1) and 0.72 (in O=P(c1ccccc1)(c1ccccc1)c1ccccc1Oc1ccccc1P(=O)(c1ccccc1)c1ccccc1).

Compound `CCCC1=Cc2nc1ccc1[nH]c(cc1CCC)c1nc(c(NC(=O)CCCC(=O)OC)cc3[nH]c2cc3CCC)C(CCC)=C1` had a photoluminescence quantum yield (in Cc1ccccc1) of 0.2.

Consider `COc1ccc(-c2cnc(-c3ccccc3)o2)cc1OC`, for which the photoluminescence quantum yield (in ClCCl) is 0.19.

Regarding `CCCN(c1ccccc1)c1ccc2c(c1)C(CC)(CC)c1cc(/C=C/c3ccc(/C=C(\C#N)C(=O)O)s3)ccc1-2`, the photoluminescence quantum yield is 0.355 (in C1CCOC1); 0.862 (in C1COCCO1); 0.229 (in CC#N); 0.486 (in CC(C)=O); 0.584 (in CCOC(C)=O); 0.894 (in CN(C)C=O). Further, the photoluminescence quantum yield was 0.611 (in CS(C)=O) and 0.624 (in ClCCl).

Regarding `COc1ccc(C2=C3C(C)=CC(C)=[N+]3[B-](F)(F)n3c(/C=C/c4ccc(N(C)C)cc4)cc(C)c32)cc1`, the photoluminescence quantum yield is, setting by setting: (in C1CCCCC1) 0.97; (in C1CCOC1) 0.56; (in C1COCCO1) 0.77; (in CC1CCCCC1) 0.86; (in CC#N) 0.09; (in CC(C)=O) 0.27. The photoluminescence quantum yield (in CC(C)OC(C)C) was 0.87; the photoluminescence quantum yield (in CCC#N) came out at 0.19; the photoluminescence quantum yield (in CCCC#N) was found to be 0.27; the photoluminescence quantum yield (in CCCCO) was found to be 0.59; the photoluminescence quantum yield (in CCCCOCCCC) turned out to be 0.91; the photoluminescence quantum yield (in CCOC(C)=O) worked out at 0.59. For the same compound, the photoluminescence quantum yield reads like this: (in CCOCC) 0.93; (in CN(C)C=O) 0.08; (in CO) 0.16; (in CS(C)=O) 0.056; (in Cc1ccccc1) 0.85; (in ClC(Cl)Cl) 0.82.

As to `O=C1C2=C(O[B-](F)(F)[n+]3c2ccc2ccccc23)c2cccc3c(N4CCOCC4)ccc1c23`, the photoluminescence quantum yield is, setting by setting: (in C1CCOC1) 0.53; (in CC#N) 0.47; (in CCO) 0.45; (in CO) 0.44; (in ClCCl) 0.5.

Consider `Cc1c(COC(=O)c2ccc(I)cc2)n2c(OCC(=O)c3ccc(I)cc3)c(C)c(=O)n2c1=O`, for which the photoluminescence quantum yield (in CCO) turned out to be 0.842.

For the compound `CCCN1/C(=C/C=C(/C=C/c2sc3ccccc3[n+]2CCC)c2ccc([N+](=O)[O-])cc2)Sc2ccccc21`, the photoluminescence quantum yield reads like this: (in CO) 0.05; (in CS(C)=O) 0.02; (in O) 0.02.

In turn, `Cc1cc(C)c(C2=C3C=C(c4ccc(C(C)(C)C)cc4)C(c4ccc(C(C)(C)C)cc4)=[N+]3[B-](F)(F)n3c2cc(-c2ccc(C(C)(C)C)cc2)c3-c2ccc(C(C)(C)C)cc2)c(C)c1` showed a photoluminescence quantum yield (in C1CCCCC1) of 0.77; a photoluminescence quantum yield (in C1CCOC1) of 0.96; a photoluminescence quantum yield (in CC#N) of 0.62; a photoluminescence quantum yield (in Cc1ccccc1) of 0.78; a photoluminescence quantum yield (in ClCCl) of 0.74.

Where the note is “in Cc1ccccc1”, `Fc1c(F)c(-n2c3ccccc3c3ccccc32)c(F)c(-n2c3ccccc3c3ccccc32)c1-c1nnc(-c2ccccc2)o1` yielded a photoluminescence quantum yield of 0.08.

In turn, `Cc1nc2cccc(-c3nc4ccc(Cl)cc4o3)c2c(=O)[nH]1` registered a photoluminescence quantum yield (in CN(C)C=O) of 0.275.

For the compound `CC(C)(C)NC(=O)c1ccc(C(=O)NC(C)(C)C)c2c1c1c3ccc(Cl)cc3c3cc(Cl)ccc3c1c1c3ccc(Cl)cc3c3cc(Cl)ccc3c21`, the photoluminescence quantum yield (in ClCCl) came to 0.07.

On to `ClP1(Cl)=N[P@@](Cl)(Oc2ccc3ccc4cccc5ccc2c3c45)=N[P@@](Cl)(Oc2ccc3ccc4cccc5ccc2c3c45)=N1`, for which the photoluminescence quantum yield (in ClCCl) turned out to be 0.7.

Turning to `c1ccc(-n2cccc2)cc1`, the photoluminescence quantum yield runs as follows: (in CC#N) 0.17; (in CCCCCC) 0.24.

Compound `CCC(C)(C)c1ccc2c(c1)C(CCOC)(CCOC)c1cc(-c3ccc4c(c3)C(CCOC)(CCOC)c3cc(C(C)(C)CC)ccc3-4)ccc1-2` had a photoluminescence quantum yield (in C1CCCCC1) of 0.61.

Consider `COc1ccc(-c2cc(-c3ccccc3)c3n2[B-](F)(F)[N+]2=C4C=NC=CN4[B-](F)(F)[N+]2=C3)cc1`, for which the photoluminescence quantum yield (in ClCCl) came out at 0.46.

Take `COc1cc2c(cc1-c1ccncc1)Cc1c3c(c4c(c1-2)-c1cc(OC)c(-c2ccncc2)cc1C4)C(=O)N(CCC(C)C)C3=O`: the photoluminescence quantum yield (in C1CCOC1) was found to be 0.42.

In turn, `COc1ccc2c(-c3nc(-c4ccccc4Cl)no3)cc(=O)oc2c1` yielded a photoluminescence quantum yield (in CCO) of 0.39 and a photoluminescence quantum yield (in ClC(Cl)Cl) of 0.19.
